Results taken from patent publication US20190234936A1 (priority 2016, published 2019).

System: human neutrophils
Assay type: cell-based

CCCCCCCCCCCCCC(=O)O[C@@H]1[C@@H](C)[C@@]2(O)[C@@H](C=C(CO)C[C@]3(O)C(=O)C(C)=C[C@@H]23)[C@@H]2C(C)(C)[C@]12OC(C)=O [PMA, phorbol 12-myristate 13-acetate]
NET formation (DNA staining): abundant lattices of extracellular NET-DNA filaments
